Data published in paper PMC9098912, “Molecular basis for inhibiting human glucose transporters by exofacial inhibitors” (Nature Communications, 2022).
Where a chain is given by its changes, count along the chain named. Entries after “also recorded” stand apart in the source; their conditions may differ.

Columns and labels:
GLUT3 S71A = molecular target: T1, GLUT3 S71A (Homo sapiens, UniProt P11169, N43T/S71A); experiment: biochemical; assay type: binding
T1 construct: His10 (N); made in house; host or cells: Sf9 insect cells (baculovirus)
Procedure: (§1) All mutants were generated by standard PCR-based strategy.
(§2) Inhibitors with serial dilutions were mixed with indicated protein. […] MST analyses were conducted on a Monolith NT. […] The MST data was analyzed by Monolith NT.115.

GLUT3 F70A = GLUT3 F70A (Homo sapiens, UniProt P11169, F70A/N43T); experiment: biochemical
Procedure: The recombinant human glucose transporter GLUT1(N45T) and E. coli (strain O157:H7) D-xylose:proton symporter XylE were expressed and purified as described previously[17],[26]. […] In brief, the cDNA of human GLUT3 was cloned into a modified pFastBac vector (Invitrogen) fused with an N-terminal His10 tag. All mutants were generated by standard PCR-based strategy.
as §2

Water solubility = assay type: physicochemical; settings: can only be applied up to 160 μM
[1] = molecular target: T2, human glucose transporter GLUT1(N45T) (Homo sapiens, UniProt P11166, N45T); experiment: Proteoliposome-based counterflow assay, inhibition of D-[2-3H]-glucose transport; assay type: biochemical; settings: GLUT1
T2 construct: made in house
T2 sequence (P11166 1-492 N45T): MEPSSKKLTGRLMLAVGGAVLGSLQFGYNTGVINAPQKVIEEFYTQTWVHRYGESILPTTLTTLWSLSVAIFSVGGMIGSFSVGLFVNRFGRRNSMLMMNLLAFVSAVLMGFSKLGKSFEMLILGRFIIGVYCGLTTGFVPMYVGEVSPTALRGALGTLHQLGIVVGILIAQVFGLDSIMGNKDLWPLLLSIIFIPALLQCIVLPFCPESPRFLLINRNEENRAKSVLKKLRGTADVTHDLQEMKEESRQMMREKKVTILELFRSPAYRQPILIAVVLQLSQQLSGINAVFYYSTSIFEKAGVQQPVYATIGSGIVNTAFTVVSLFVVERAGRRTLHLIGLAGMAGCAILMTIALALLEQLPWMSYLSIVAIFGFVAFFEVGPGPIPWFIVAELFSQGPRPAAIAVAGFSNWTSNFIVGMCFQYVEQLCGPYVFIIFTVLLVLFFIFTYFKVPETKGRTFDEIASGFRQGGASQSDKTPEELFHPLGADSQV
Procedure: as §1
(§3) All counterflow assays were performed at 25 °C. […] Liposome without protein was used as negative control.
(§4) All experiments were repeated at least three times.

human GLUT3(N43T) = molecular target: T3, human GLUT3(N43T) (Homo sapiens, UniProt P11169, N43T); experiment: as above; assay type: biochemical
T3 construct: His10 (N); made in house; host or cells: Sf9 insect cells (baculovirus)
T3 sequence (P11169 1-496 N43T): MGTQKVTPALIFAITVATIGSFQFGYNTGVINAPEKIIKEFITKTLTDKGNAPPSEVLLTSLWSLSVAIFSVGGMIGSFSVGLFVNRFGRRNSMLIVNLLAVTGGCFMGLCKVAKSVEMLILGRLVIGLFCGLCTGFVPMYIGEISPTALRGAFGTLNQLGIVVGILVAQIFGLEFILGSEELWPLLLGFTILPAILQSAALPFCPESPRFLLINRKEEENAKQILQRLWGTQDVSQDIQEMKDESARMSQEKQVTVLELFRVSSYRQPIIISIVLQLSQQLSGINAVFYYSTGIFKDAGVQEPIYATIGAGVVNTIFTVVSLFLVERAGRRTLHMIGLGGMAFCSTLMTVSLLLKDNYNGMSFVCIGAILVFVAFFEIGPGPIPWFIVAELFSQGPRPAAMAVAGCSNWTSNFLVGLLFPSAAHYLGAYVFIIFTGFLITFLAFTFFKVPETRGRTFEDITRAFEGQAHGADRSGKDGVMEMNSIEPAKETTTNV
Procedure: as §1, §3, §4

GLUT3 F289A = molecular target: T4, GLUT3 F289A (Homo sapiens, UniProt P11169, F289A/N43T); experiment: MST binding assay, GLUT3 variant; settings: read-out: Kd of SA47
T4 construct: His10 (N); made in house; host or cells: Sf9 insect cells (baculovirus)
T4 sequence (P11169 1-496 N43T/F289A): T3 sequence (P11169 1-496 N43T) with F289A
Procedure: as §1, §2

GLUT3 T28A = molecular target: T5, GLUT3 T28A (Homo sapiens, UniProt P11169, N43T/T28A); experiment: Binding of SA47 to GLUT3 variant; settings: single point mutation T28A
T5 construct: His10 (N); made in house; host or cells: Sf9 insect cells (baculovirus)
T5 sequence (P11169 1-496 T28A/N43T): T3 sequence (P11169 1-496 N43T) with T28A

T1 sequence (P11169 whole entry N43T/S71A): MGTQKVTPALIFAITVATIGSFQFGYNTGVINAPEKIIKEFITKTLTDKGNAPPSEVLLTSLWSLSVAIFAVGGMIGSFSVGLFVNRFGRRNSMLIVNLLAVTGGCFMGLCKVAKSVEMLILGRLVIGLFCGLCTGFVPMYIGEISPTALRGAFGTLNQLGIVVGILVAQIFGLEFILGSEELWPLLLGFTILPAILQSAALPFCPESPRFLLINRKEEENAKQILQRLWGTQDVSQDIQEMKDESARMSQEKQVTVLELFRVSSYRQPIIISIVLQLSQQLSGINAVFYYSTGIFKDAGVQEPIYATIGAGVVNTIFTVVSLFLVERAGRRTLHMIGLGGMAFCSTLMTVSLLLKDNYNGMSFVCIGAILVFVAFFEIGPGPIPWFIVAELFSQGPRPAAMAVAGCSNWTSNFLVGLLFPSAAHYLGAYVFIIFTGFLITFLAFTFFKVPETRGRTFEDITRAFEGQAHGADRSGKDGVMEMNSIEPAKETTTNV
GLUT3 F70A, sequence (P11169 whole entry N43T/F70A, the tested form may be a part): as the sequence (P11169 whole entry N43T/S71A) above, with F70A, A71S counted along it

COC(=O)CCNCc1ccccc1-n1ncc2c(N3CCN(c4cc(F)ccc4OC)CC3)ncnc21 [SA47]
Kd (GLUT3 S71A): 1600 ± 400 nM
Affinity of SA47 with GLUT3 S71A (GLUT3 S71A; S71A versus WT): decreased the affinity; also recorded: reduced affinity
Kd (GLUT3 F70A): 1500 ± 200 nM
Water solubility (Water solubility): limited
IC50 [1]: 331 ± 38.3 nM
inhibition at 160 µM ([1]; SA47 at 160 μM): ~85%
IC50 (human GLUT3(N43T)): 823 ± 138 nM
inhibition at 160 µM (human GLUT3(N43T); SA47 at 160 μM): ~85%
Kd (GLUT3 F289A): 164 ± 67 nM
SA47 binding to GLUT3 T28A (GLUT3 T28A): abolished the binding
